Measurements: patent publication US11964967B2, “Cardiac sarcomere inhibitors” (Cytokinetics, Inc., priority 2018, dated 2024)

Target: T1, bovine cardiac myofibrils (Bos taurus, UniProt Q9BE39)
T1 construct: full-length cardiac myosin in the context of the native sarcomere; from tissue; host or cells: bovine cardiac left ventricular tissue, homogenized with detergent (triton X-100)
Assay: Skinned bovine cardiac myofibril ATPase assay (PK/LDH-coupled)
Type: biochemical
Conditions: inhibition of steady-state ATPase activity of bovine cardiac myofibrils, calcium at 75% activation (pCa75), PM12 buffer pH 6.8; for IC50: read-out: CDMF75 IC50
Protocol: To evaluate the effect of compounds on the ATPase activity of full-length cardiac myosin in the context of the native sarcomere, skinned myofibril assays were performed. Bovine cardiac myofibrils were obtained by homogenizing bovine cardiac left ventricular tissue in the presence of a detergent such as triton X-100. Such treatment removes membranes and a majority of the soluble cytoplasmic proteins but leaves intact the cardiac sarcomeric acto-myosin apparatus. Myofibril preparations retain the ability to hydrolyze ATP in an Ca^2+ regulated manner ATPase activities of such myofibril preparations in the presence and absence of compounds were assayed at Ca^2+ concentrations activating to a defined fraction of the maximal rate (i.e., 25%, 75%). Small molecule agents were assessed for their ability to inhibit the steady-state ATPase activity of bovine cardiac myofibrils using pyruvate kinase and lactate dehydrogenase (PK/LDH)-coupled enzyme system. This assay regenerates myosin-produced ADP into ATP by oxidizing NADH, producing an absorbance change at 340 nm. Prior to testing small molecule agents, the bovine cardiac myofibrils were assessed for their calcium responsiveness and the calcium concentration that achieves either a 50% (pCa50) or 75% (pCa75) activation of the myofibril system was chosen as the final condition for assessing the inhibitory activity of the small molecule agents. All enzymatic activity was measured in a buffered solution containing 12 mM PIPES (piperazine-N,N′-bis(2-ethanesulfonic acid), 2 mM magnesium chloride at pH 6.8 (PM 12 buffer). Final assay conditions were 1 mg/mL of bovine cardiac myofibrils, 4 U/mL pyruvate kinase, 6 U/mL lactate dehydrogenase, 50 μM ATP, 0.1 mg/mL BSA (bovine serum albumin), 10 ppm antifoam, 1 mM DTT, 0.5 mM NADH, 1.5 mM PEP, 0.6 mM EGTA, and an amount of CaCl2) sufficient to achieve either 50% or 75% activation of the myofibril ATPase activity. Results for compounds tested are provided in Table A. Compounds tested were prepared in accordance with the synthetic procedures described herein.

T1 sequence (Q9BE39 whole entry): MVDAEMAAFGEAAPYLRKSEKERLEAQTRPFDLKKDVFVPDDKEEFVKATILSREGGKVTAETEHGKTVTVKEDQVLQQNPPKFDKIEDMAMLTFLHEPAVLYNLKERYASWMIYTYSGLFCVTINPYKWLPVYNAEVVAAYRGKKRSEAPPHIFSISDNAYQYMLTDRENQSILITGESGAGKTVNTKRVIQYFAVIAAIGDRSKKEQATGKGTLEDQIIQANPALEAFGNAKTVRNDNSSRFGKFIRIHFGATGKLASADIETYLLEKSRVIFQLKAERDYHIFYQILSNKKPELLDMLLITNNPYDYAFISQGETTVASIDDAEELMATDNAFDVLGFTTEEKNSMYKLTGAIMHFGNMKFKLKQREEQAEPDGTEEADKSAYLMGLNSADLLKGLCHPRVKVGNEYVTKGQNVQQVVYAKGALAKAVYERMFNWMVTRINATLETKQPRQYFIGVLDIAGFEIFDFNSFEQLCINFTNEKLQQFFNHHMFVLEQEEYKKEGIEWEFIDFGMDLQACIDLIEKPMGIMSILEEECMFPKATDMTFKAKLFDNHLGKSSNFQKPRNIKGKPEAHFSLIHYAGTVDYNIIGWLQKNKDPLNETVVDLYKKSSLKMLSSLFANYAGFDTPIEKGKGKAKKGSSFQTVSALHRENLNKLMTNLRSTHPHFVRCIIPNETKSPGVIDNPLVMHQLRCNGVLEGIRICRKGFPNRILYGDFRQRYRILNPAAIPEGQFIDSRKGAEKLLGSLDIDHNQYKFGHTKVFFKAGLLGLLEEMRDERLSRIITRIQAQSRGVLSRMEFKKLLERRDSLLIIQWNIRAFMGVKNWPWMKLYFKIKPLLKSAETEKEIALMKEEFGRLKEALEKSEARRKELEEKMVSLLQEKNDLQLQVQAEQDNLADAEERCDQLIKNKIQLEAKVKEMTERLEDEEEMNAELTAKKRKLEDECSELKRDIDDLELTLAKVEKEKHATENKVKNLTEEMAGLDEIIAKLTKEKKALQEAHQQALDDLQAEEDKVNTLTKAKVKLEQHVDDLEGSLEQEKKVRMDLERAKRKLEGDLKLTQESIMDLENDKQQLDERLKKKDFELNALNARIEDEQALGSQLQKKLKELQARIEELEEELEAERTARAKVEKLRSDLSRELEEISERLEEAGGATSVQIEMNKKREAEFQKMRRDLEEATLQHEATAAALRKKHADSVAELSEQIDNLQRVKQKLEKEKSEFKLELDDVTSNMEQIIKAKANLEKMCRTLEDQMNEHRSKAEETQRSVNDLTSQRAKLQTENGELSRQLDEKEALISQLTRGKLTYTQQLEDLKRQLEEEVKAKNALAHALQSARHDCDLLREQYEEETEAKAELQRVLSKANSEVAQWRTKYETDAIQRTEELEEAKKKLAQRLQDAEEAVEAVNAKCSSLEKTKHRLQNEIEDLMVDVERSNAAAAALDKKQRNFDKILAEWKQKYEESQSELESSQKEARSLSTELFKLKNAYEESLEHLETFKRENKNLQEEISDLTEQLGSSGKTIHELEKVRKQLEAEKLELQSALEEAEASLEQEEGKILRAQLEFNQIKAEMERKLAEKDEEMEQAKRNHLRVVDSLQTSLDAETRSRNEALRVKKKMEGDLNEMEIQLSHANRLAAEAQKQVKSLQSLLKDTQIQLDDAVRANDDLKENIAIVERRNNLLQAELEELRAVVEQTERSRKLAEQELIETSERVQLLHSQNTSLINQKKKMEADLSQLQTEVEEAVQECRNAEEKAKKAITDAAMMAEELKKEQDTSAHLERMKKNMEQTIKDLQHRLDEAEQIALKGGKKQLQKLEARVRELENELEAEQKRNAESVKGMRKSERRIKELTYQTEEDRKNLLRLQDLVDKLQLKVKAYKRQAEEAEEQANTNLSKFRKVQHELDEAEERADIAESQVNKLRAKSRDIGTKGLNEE
T1 sequence (P85100 whole entry partner): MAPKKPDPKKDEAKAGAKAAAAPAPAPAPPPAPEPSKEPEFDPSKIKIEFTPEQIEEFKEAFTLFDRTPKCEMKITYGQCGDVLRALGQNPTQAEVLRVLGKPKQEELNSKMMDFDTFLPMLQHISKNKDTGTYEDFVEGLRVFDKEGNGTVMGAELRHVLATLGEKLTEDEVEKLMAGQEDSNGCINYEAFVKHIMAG
T1 sequence (Q3SZE5 whole entry partner): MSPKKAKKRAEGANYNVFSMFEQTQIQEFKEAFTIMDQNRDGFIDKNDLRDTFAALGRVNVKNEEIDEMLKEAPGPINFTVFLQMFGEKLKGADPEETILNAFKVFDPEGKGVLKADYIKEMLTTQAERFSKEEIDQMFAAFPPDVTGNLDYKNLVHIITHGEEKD

CDMF75 IC15 [µM]	IC50 [µM]	SMILES
0.6	2.2	CCc1nc(-c2ccc3c(c2)OCC32COC(=O)N2)no1 (racemic) [Compound 41, 6-(5-ethyl-1,2,4-oxadiazol-3-yl)-2H-spiro[benzofuran-3,4′-oxazolidin]-2′-one]
>39.2	> 39.2	CCc1nc(-c2ccc3c(c2)OCC32COC(=O)N2)no1 (single isomer, unassigned) [Compound 41B]
0.2	1	CCc1nc(-c2ccc3c(c2)OCC32COC(=O)N2)no1 (single isomer, unassigned) [Compound 41A]
2.1	9.1	Cc1nc(-c2ccc3c(c2)CCC32COC(=O)N2)no1 (single isomer, unassigned) [Compound 29B]
2.5	14.1	O=C1NC2(CCc3cc(-c4noc(C(F)F)n4)ccc32)CO1 (racemic) [Compound 38, 5-(5-(difluoromethyl)-1,2,4-oxadiazol-3-yl)-2,3-dihydrospiro[indene-1,4′-oxazolidin]-2′-one]
0.3	1.6	CCc1nc(-c2ccc3c(c2)CCC32COC(=O)N2)no1 (single isomer, unassigned) [Compound 26B]
4.2	18.4	Cc1nc(-c2ccc3c(c2)CCC32COC(=O)N2)no1 (racemic) [Compound 29, 5-(5-methyl-1,2,4-oxadiazol-3-yl)-2,3-dihydrospiro[indene-1,4′-oxazolidin]-2′-one]
>39.2	> 39.2	O=C1NC2(CCc3cc(-c4noc(C(F)F)n4)ccc32)CO1 (single isomer, unassigned) [Compound 38B]
>39.2	> 39.2	CC(C)c1nc(-c2ccc3c(c2)CCC32COC(=O)N2)no1 (single isomer, unassigned) [Compound 32B]
0.8	3	CCc1nc(-c2ccc3c(c2)CCC32COC(=O)N2)no1 (racemic) [Compound 26, 5-(5-ethyl-1,2,4-oxadiazol-3-yl)-2,3-dihydrospiro[indene-1,4′-oxazolidin]-2′-one]
>39.2	> 39.2	Cc1nc(-c2ccc3c(c2)CCC32COC(=O)N2)no1 (single isomer, unassigned) [Compound 29A]
>39.2	> 39.2	O=C1NC2(CCc3cc(-c4noc(C5CC5)n4)ccc32)CO1 (single isomer, unassigned) [Compound 35A]
31.0	> 39.2	CCc1nc(-c2ccc3c(c2)CCC32COC(=O)N2)no1 (single isomer, unassigned) [Compound 26A]
1.8	7.5	O=C1NC2(CCc3cc(-c4noc(C(F)F)n4)ccc32)CO1 (single isomer, unassigned) [Compound 38A]
1.5	6.3	CC(C)c1nc(-c2ccc3c(c2)CCC32COC(=O)N2)no1 (single isomer, unassigned) [Compound 32A]

The next lines start with the compound.

SMILES	CDMF75 IC15 [µM]	IC50 [µM]
Cc1cc(NC(=O)C2CCc3cc(-c4noc(C5CC5)n4)ccc32)ccn1 (racemic) [Compound 20, 5-(5-cyclopropyl-1,2,4-oxadiazol-3-yl)-N-(2-methylpyridin-4-yl)-2,3-dihydro-1H-indene-1-carboxamide]	2.6	13.9
Cc1cc(NC(=O)C2CCc3cc(-c4noc(C5CC5)n4)ccc32)ccn1 (single isomer, unassigned) [Compound 20B]	33.2	> 39.2
O=C1NC2(CCc3cc(-c4noc(C5CC5)n4)ccc32)CO1 (single isomer, unassigned) [Compound 35B]	0.6	3.4
CCc1nc(-c2ccc3c(c2)CCC3C(=O)Nc2ccnc(C)c2)no1 (single isomer, unassigned) [Compound 2A]	0.7	3
Cc1cc(NC(=O)C2CCc3cc(-c4noc(C)n4)ccc32)ccn1 (single isomer, unassigned) [Compound 17A]	2.9	13.6
CCc1nc(-c2ccc3c(c2)CCC3C(=O)Nc2ccnn2C)no1 (single isomer, unassigned) [Compound 5A]	>39.2	> 39.2
Cc1cc(NC(=O)C2CCc3cc(-c4noc(C5CC5)n4)ccc32)ccn1 (single isomer, unassigned) [Compound 20A]	1.2	5.6
CCc1nc(-c2ccc3c(c2)CCC3C(=O)Nc2ccnc(C)c2)no1 (racemic) [Compound 2, 5-(5-ethyl-1,2,4-oxadiazol-3-yl)-N-(2-methylpyridin-4-yl)-2,3-dihydro-1H-indene-1-carboxamide]	1.6	5.5
Cc1cc(NC(=O)C2CCc3cc(-c4noc(C(F)F)n4)ccc32)ccn1 (racemic) [Compound 14, 5-(5-(difluoromethyl)-1,2,4-oxadiazol-3-yl)-N-(2-methylpyridin-4-yl)-2,3-dihydro-1H-indene-1-carboxamide]	4.4	23.1
CCNC(=O)C1CCc2cc(-c3noc(CC)n3)ccc21 (racemic) [Compound 11, N-ethyl-5-(5-ethyl-1,2,4-oxadiazol-3-yl)-2,3-dihydro-1H-indene-1-carboxamide]	>39.2	> 39.2
Cc1cc(NC(=O)C2CCc3cc(-c4noc(C(C)C)n4)ccc32)ccn1 (racemic) [Compound 23, 5-(5-isopropyl-1,2,4-oxadiazol-3-yl)-N-(2-methylpyridin-4-yl)-2,3-dihydro-1H-indene-1-carboxamide]	5.6	29
Cc1cc(NC(=O)C2CCc3cc(-c4noc(C)n4)ccc32)ccn1 (racemic) [Compound 17, 5-(5-methyl-1,2,4-oxadiazol-3-yl)-N-(2-methylpyridin-4-yl)-2,3-dihydro-1H-indene-1-carboxamide]	6.0	33.4
CCc1nc(-c2ccc3c(c2)CCC3C(=O)Nc2ccnn2C)no1 (racemic) [Compound 5, 5-(5-ethyl-1,2,4-oxadiazol-3-yl)-N-(1-methyl-1H-pyrazol-5-yl)-2,3-dihydro-1H-indene-1-carboxamide]	>39.2	> 39.2
CCc1nc(-c2ccc3c(c2)CCC3C(=O)Nc2ccccc2)no1 (single isomer, unassigned) [Compound 8A]	0.7	2.8
Cc1cc(NC(=O)C2CCc3cc(-c4noc(C(F)F)n4)ccc32)ccn1 (single isomer, unassigned) [Compound 14A]	2.2	11
Cc1cc(NC(=O)C2CCc3cc(-c4noc(C(F)F)n4)ccc32)ccn1 (single isomer, unassigned) [Compound 14B]	>39.2	> 39.2
CCNC(=O)C1CCc2cc(-c3noc(CC)n3)ccc21 (single isomer, unassigned) [Compound 11B]	26.3	> 39.2
CCc1nc(-c2ccc3c(c2)CCC3C(=O)Nc2ccccc2)no1 (single isomer, unassigned) [Compound 8B]	>39.2	> 39.2
Cc1cc(NC(=O)C2CCc3cc(-c4noc(C)n4)ccc32)ccn1 (single isomer, unassigned) [Compound 17B]	>39.2	> 39.2
Cc1cc(NC(=O)C2CCc3cc(-c4noc(C(C)C)n4)ccc32)ccn1 (single isomer, unassigned) [Compound 23A]	3.6	14.6
Cc1cc(NC(=O)C2CCc3cc(-c4noc(C(C)C)n4)ccc32)ccn1 (single isomer, unassigned) [Compound 23B]	>39.2	> 39.2
CCNC(=O)C1CCc2cc(-c3noc(CC)n3)ccc21 (single isomer, unassigned) [Compound 11A]	>39.2	> 39.2
CCc1nc(-c2ccc3c(c2)CCC3C(=O)Nc2ccnc(C)c2)no1 (single isomer, unassigned) [Compound 2B]	17.5	> 39.2
CCc1nc(-c2ccc3c(c2)CCC3C(=O)Nc2ccnn2C)no1 (single isomer, unassigned) [Compound 5B]	–	> 39.2
CCc1nc(-c2ccc3c(c2)CCC3C(=O)Nc2ccccc2)no1 (racemic) [Compound 8, 5-(5-ethyl-1,2,4-oxadiazol-3-yl)-N-phenyl-2,3-dihydro-1H-indene-1-carboxamide]	1.3	6.1
